The target of this experiment is T1, human calcium-sensing receptor (CaSR) (Homo sapiens, UniProt P41180).
T1 construct: expressed in transfected cells
T1 sequence (P41180 20-1078): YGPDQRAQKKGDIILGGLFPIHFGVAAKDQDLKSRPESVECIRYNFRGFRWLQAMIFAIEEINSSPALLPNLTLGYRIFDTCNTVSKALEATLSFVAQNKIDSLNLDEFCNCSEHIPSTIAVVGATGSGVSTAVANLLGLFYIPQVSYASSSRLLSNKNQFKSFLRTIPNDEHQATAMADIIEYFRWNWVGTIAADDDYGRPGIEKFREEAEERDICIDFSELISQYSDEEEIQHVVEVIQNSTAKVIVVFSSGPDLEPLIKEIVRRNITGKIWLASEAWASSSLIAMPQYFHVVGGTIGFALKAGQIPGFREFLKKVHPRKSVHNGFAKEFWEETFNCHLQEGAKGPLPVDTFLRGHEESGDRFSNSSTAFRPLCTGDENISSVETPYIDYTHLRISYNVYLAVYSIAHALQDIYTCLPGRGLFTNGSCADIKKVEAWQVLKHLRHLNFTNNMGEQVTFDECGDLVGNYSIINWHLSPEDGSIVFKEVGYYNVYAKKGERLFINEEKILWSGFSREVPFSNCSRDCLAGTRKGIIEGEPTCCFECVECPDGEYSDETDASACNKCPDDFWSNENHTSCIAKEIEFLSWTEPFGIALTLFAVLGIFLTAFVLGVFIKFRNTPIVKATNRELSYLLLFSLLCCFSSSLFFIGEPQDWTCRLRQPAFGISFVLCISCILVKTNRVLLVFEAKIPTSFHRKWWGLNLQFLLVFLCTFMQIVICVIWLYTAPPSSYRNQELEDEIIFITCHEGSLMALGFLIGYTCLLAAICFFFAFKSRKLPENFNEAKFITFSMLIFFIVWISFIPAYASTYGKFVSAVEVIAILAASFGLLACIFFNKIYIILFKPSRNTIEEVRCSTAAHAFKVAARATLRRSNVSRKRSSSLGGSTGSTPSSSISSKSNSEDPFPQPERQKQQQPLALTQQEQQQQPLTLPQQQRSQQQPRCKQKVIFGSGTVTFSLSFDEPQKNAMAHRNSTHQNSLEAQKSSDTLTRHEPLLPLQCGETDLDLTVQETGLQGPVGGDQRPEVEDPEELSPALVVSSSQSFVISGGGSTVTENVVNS
The experiment can be described thus: intracellular Ca assay, CaSR antagonist activity in HEK293/hCaSR cells. Type of experiment: cell-based. The following applies: Fura2-AM, inhibition of response to calcium chloride ligand solution, read-out: IC50 values according to the intracellular Ca assay (CaSR antagonist activity). As for the experimental part:
HEK293 cells stably expressing human calcium-sensing receptor (CaSR) (termed HEK293/hCaSR cells) were used. HEK293/hCaSR cells were cultured in a culture medium [DMEM medium containing 0.5 mg/mL Geneticin, 50 Unit/mL penicillin, 50 μg/mL streptomycin and 10% fetal bovine serum (FBS), all manufactured by Invitrogen] to semiconfluent in an incubator at 37° C. under 5% carbon dioxide atmosphere.
Cultured cells were washed with phosphate buffered saline (PBS(−), manufactured by Dainippon Sumitomo Pharmaceutical Company) which had been prewarmed to 37° C., added with PBS(−) containing 10 mM ethylenediamine tetraacetic acid (EDTA), and then incubated in an incubator at 37° C. for 10 minutes. After adding the culture medium to separate the cells, cell suspension was transferred to a centrifuge tube. Cells were collected by centrifuge at 1,500 rpm for 3 minutes, and resuspended in Ca assay buffer [20 mM HEPES buffer (pH 7.4), 115 mM sodium chloride, 5.4 mM potassium chloride, 0.8 mM magnesium chloride, 0.8 mM calcium chloride, 13.8 mM D(+)-glucose (all manufactured by Wako Pure Chemicals) and 0.1% bovine serum albumin (manufactured by SIGMA)] containing 0.2% Pluronic F-127 (manufactured by Molecular Probes) and […] Fura2-AM (manufactured by DOJINDO LABORATORIES) to obtain a cell suspension of 5×10^6 cells/mL. After incubating at 37° C. for 30 minutes, the cells were washed twice with the Ca assay buffer and suspended in the same buffer to obtain a cell suspension of 1×10^6 cells/60 μL. 60 μL of the cell suspension was aliquoted to each well of a 96 well UV microplate (manufactured by Corning Co.) to give a cell plate.
The test compound was diluted with the Ca assay buffer to five times the final concentration and then 80 μL of the diluted compound was applied to each well of a 96 well round bottomed microplate (manufactured by Corning Co.) to give a sample plate. 80 μL of the Ca assay buffer containing 7.5 mM calcium chloride (i.e., ligand solution) was applied to each well of a 96 well round bottomed microplate to give a ligand plate. Then, thus prepared sample plate, ligand plate, and the cell plate were placed in Functional Drug Screening System (FDSS) 4000 (manufactured by Hamamatsu Photonics K.K.) which had been preswitched on and prewarmed to 37° C. Measurements were then carried out as follows. After incubating the cell plate for 180 seconds, fluorescence intensity was measured every two seconds (excitation wavelength; 340 nm and 380 nm, measurement wavelength; 500 nm). After the measurement for 40 seconds, 20 μL of the test compound solution from the sample plate was added to the cell plate, followed by continuous measurement for 160 seconds. Then, 20 μL of the ligand solution from the ligand plate was added to the cell plate, followed by continuous measurement for 100 seconds.
Amount of change in intracellular Ca concentration is indicated as a peak height of the ratio of the fluorescence intensity with excitation of 340 nm and 380 nm (i.e., fluorescence intensity with excitation at 340 nm/fluorescence intensity with excitation at 380 nm) that is obtained from the difference between the maximum ratio after adding the ligand solution and the ratio before adding the ligand solution. Further, when the peak height obtained from the Ca assay buffer containing no test compound has inhibition ratio of 0% while the peak height obtained from the Ca assay buffer containing no calcium chloride as a ligand solution has inhibition ratio of 100%, inhibition ratio for each test compound (i.e., CaSR antagonist activity) was calculated.
Consider `CN(C[C@H](O)CNC(C)(C)Cc1ccc2ccccc2c1)S(=O)(=O)c1ccccc1-c1cccc(C=CC(=O)O)c1` [Exp. 3-1, (R)-3-(2′-(N-(2-hydroxy-3-(2-methyl-1-(naphthalen-2-yl)propan-2-ylamino)propyl)-N-methylsulfamoyl)biphenyl-3-yl)acrylic acid], for which the IC50 lay within 300 to 1000 nM.

In the case of `CN(C[C@H](O)CNC(C)(C)Cc1ccc2ccccc2c1)S(=O)(=O)c1cccc(-c2cccc(C(=O)O)c2)c1` [Exp. 3-5, (R)-3′-(N-(2-hydroxy-3-(2-methyl-1-(naphthalen-2-yl)propan-2-ylamino)propyl)-N-methylsulfamoyl)biphenyl-3-carboxylic acid], the IC50 was ≤ 300 nM.

For the compound `CN(C[C@H](O)CNC(C)(C)Cc1ccc2ccccc2c1)S(=O)(=O)c1cccc(-c2ccc(C(=O)O)cc2)c1` [Exp. 3-6, (R)-3′-(N-(2-hydroxy-3-(2-methyl-1-(naphthalen-2-yl)propan-2-ylamino)propyl)-N-methylsulfamoyl)biphenyl-4-carboxylic acid], the IC50 was in the range of 300 to 1000 nM.

Turning to `Cc1ccc(-c2cccc(S(=O)(=O)N(C)C[C@H](O)CNC(C)(C)Cc3ccc4ccccc4c3)c2)cc1C(=O)O` [Exp. 3-7, (R)-3′-(N-(2-hydroxy-3-(2-methyl-1-(naphthalen-2-yl)propan-2-ylamino)propyl)-N-methylsulfamoyl)-4-methylbiphenyl-3-carboxylic acid], the IC50 lay in the range of 300 to 1000 nM.

On to `Cc1cc(-c2cccc(S(=O)(=O)N(C)C[C@H](O)CNC(C)(C)Cc3ccc4ccccc4c3)c2)ccc1C(=O)O` [Exp. 3-8, (R)-3′-(N-(2-hydroxy-3-(2-methyl-1-(naphthalen-2-yl)propan-2-ylamino)propyl)-N-methylsulfamoyl)-3-methylbiphenyl-4-carboxylic acid], for which the IC50 is ≤ 300 nM.

For `CN(C[C@H](O)CNC(C)(C)Cc1ccc2ccccc2c1)S(=O)(=O)c1cccc(-c2ccc(C(=O)O)c(F)c2)c1` [Exp. 3-9, (R)-3-fluoro-3′-(N-(2-hydroxy-3-(2-methyl-1-(naphthalen-2-yl)propan-2-ylamino)propyl)-N-methylsulfamoyl)biphenyl-4-carboxylic acid], the IC50 was 300 to 1000 nM.

For the compound `CN(C[C@H](O)CNC(C)(C)Cc1ccc2ccccc2c1)S(=O)(=O)c1cccc(-c2ccc(C(=O)O)c(N)c2)c1` [Exp. 3-10, (R)-3-amino-3′-(N-(2-hydroxy-3-(2-methyl-1-(naphthalen-2-yl)propan-2-ylamino)propyl)-N-methylsulfamoyl)biphenyl-4-carboxylic acid], the IC50 is ≤ 300 nM.

On to `CN(C[C@H](O)CNC(C)(C)Cc1ccc2ccccc2c1)S(=O)(=O)c1cccc(-c2ccc(C(=O)O)c(Cl)c2)c1` [Exp. 3-11, (R)-3-chloro-3′-(N-(2-hydroxy-3-(2-methyl-1-(naphthalen-2-yl)propan-2-ylamino)propyl)-N-methylsulfamoyl)biphenyl-4-carboxylic acid], for which the IC50 was in the range of 300 to 1000 nM.

For `CN(C[C@H](O)CNC(C)(C)Cc1ccc2ccccc2c1)S(=O)(=O)c1cccc(-c2ccc(C(=O)O)cc2F)c1` [Exp. 3-12, (R)-2-fluoro-3′-(N-(2-hydroxy-3-(2-methyl-1-(naphthalen-2-yl)propan-2-ylamino)propyl)-N-methylsulfamoyl)biphenyl-4-carboxylic acid], the IC50 was 300 to 1000 nM.

Regarding `CN(C[C@H](O)CNC(C)(C)Cc1ccc2ccccc2c1)S(=O)(=O)c1cccc(-c2cc3c(c(C(=O)O)c2)OCC3)c1` [Exp. 3-13, (R)-5-(3-(N-(2-hydroxy-3-(2-methyl-1-(naphthalen-2-yl)propan-2-ylamino)propyl)-N-methylsulfamoyl)phenyl)-2,3-dihydrobenzofuran-7-carboxylic acid], the IC50 lay in the range of 1000 to 3000 nM.

For the compound `CN(C[C@H](O)CNC(C)(C)Cc1ccc2ccccc2c1)S(=O)(=O)c1cccc(-c2ccc(C=CC(=O)O)cc2)c1` [Exp. 3-14, (R)-3-(3′-(N-(2-hydroxy-3-(2-methyl-1-(naphthalen-2-yl)propan-2-ylamino)propyl)-N-methylsulfamoyl)biphenyl-4-yl)acrylic acid], the IC50 fell in the range of 300 to 1000 nM.

In the case of `CN(C[C@H](O)CNC(C)(C)Cc1ccc2ccccc2c1)S(=O)(=O)c1cccc(-c2ccc(CCC(=O)O)cc2)c1` [Exp. 3-15, (R)-3-(3′-(N-(2-hydroxy-3-(2-methyl-1-(naphthalen-2-yl)propan-2-ylamino)propyl)-N-methylsulfamoyl)biphenyl-4-yl)propionic acid], the IC50 lay in the range of 300 to 1000 nM.

On to `CN(C[C@H](O)CNC(C)(C)Cc1ccc2ccccc2c1)S(=O)(=O)c1cccc(-c2cccc(C=CC(=O)O)c2)c1` [Exp. 3-16, (R)-3-(3′-(N-(2-hydroxy-3-(2-methyl-1-(naphthalen-2-yl)propan-2-ylamino)propyl)-N-methylsulfamoyl)biphenyl-3-yl)acrylic acid], for which the IC50 was 1000 to 3000 nM.

As for `CN(C[C@H](O)CNC(C)(C)Cc1ccc2ccccc2c1)S(=O)(=O)c1cccc(-c2cc(N)cc(C(=O)O)c2)c1` [Exp. 3-17, (R)-5-amino-3′-(N-(2-hydroxy-3-(2-methyl-1-(naphthalen-2-yl)propan-2-ylamino)propyl)-N-methylsulfamoyl)biphenyl-3-carboxylic acid], the IC50 fell in the range of 300 to 1000 nM.

`CN(C[C@H](O)CNC(C)(C)Cc1ccc2ccccc2c1)S(=O)(=O)c1cccc(-c2cc(C(=O)O)cc([N+](=O)[O-])c2)c1` [Exp. 3-18, (R)-3′-(N-(2-hydroxy-3-(2-methyl-1-(naphthalen-2-yl)propan-2-ylamino)propyl)-N-methylsulfamoyl)-5-nitrobiphenyl-3-carboxylic acid]: the IC50 is 1000 to 3000 nM.

As for `CN(C[C@H](O)CNC(C)(C)Cc1ccc2ccccc2c1)S(=O)(=O)c1cccc(-c2ccc(C(=O)O)cc2N)c1` [Exp. 3-19, (R)-2-amino-3′-(N-(2-hydroxy-3-(2-methyl-1-(naphthalen-2-yl)propan-2-ylamino)propyl)-N-methylsulfamoyl)biphenyl-4-carboxylic acid], the IC50 was 300 to 1000 nM.

Consider `CN(C[C@H](O)CNC(C)(C)Cc1ccc2ccccc2c1)S(=O)(=O)c1cccc(-c2ccc(C(=O)O)cc2[N+](=O)[O-])c1` [Exp. 3-20, (R)-3′-(N-(2-hydroxy-3-(2-methyl-1-(naphthalen-2-yl)propan-2-ylamino)propyl)-N-methylsulfamoyl)-2-nitrobiphenyl-4-carboxylic acid], for which the IC50 was in the range of 1000 to 3000 nM.

As a reminder, the IC50 is the concentration needed to halve the response being measured.
